Among the test systems are SF-268 CNS; OVCAR-3 ovarian; SK-MEL-2 melanoma; RPMI-8226 leukemia; UACC-257 melanoma; SK-MEL-5 melanoma; HCC-2998 colon; CAKI-1 renal; RXF 393 renal; HCT-116 colon.
What all share (experiment): NCI tumour cell line growth inhibition, 48 h

We go through eight compounds from PubChem BioAssay (NCI).

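Cells were grown in 96-well plates and exposed to each compound for 48 hours at five concentrations; endpoints were interpolated linearly between bracketing concentrations, or set to the highest concentration if not reached. The concentration for 50% growth inhibition is given as GI50. TGI denotes the concentration required for complete inhibition of growth.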

Turning to `C[C@@H]1COCCN1c1cc(C2([S@@](C)(=N)=O)CC2)nc(-c2ccnc3[nH]ccc23)n1`, the GI50 is 9.66 µM in the experiment with SF-268 CNS; 7.07 µM in the experiment on OVCAR-3 ovarian; 5.61 µM with SK-MEL-2 melanoma; 6.21 µM with RPMI-8226 leukemia; 14.6 µM in the experiment on UACC-257 melanoma; 6.87 µM in the experiment on SK-MEL-5 melanoma. In addition, the GI50 is 4.69 µM in the experiment with HCC-2998 colon, 11.7 µM in the experiment with CAKI-1 renal, 2.34 µM with RXF 393 renal and 7.38 µM with HCT-116 colon. For the same compound, the TGI in the experiment on SF-268 CNS is over 100 µM; with OVCAR-3 ovarian, over 91.1 µM; in the experiment on SK-MEL-2 melanoma, 44.9 µM; with RPMI-8226 leukemia it was over 60.9 µM; with UACC-257 melanoma, over 100 µM; in the experiment on SK-MEL-5 melanoma it was 26.4 µM. The TGI was over 100 µM in the experiment with HCC-2998 colon, over 79.2 µM with CAKI-1 renal, 9.68 µM with RXF 393 renal and over 100 µM with HCT-116 colon.
Turning to `COc1ccc(Cn2cc3c(c2-c2ccccc2)CCc2cnoc2-3)cc1N`, the GI50 was 0.812 µM in the experiment on SF-268 CNS; 0.0526 µM in the experiment on OVCAR-3 ovarian; 0.273 µM in the experiment on SK-MEL-2 melanoma; 0.31 µM with RPMI-8226 leukemia; 10.2 µM in the experiment with UACC-257 melanoma; 0.0617 µM in the experiment on SK-MEL-5 melanoma. In addition, the GI50 with HCC-2998 colon was 0.496 µM; in the experiment on CAKI-1 renal it was 0.116 µM; with RXF 393 renal it was 0.32 µM; in the experiment on HCT-116 colon it was 0.0996 µM. The TGI with SF-268 CNS was over 100 µM; in the experiment with OVCAR-3 ovarian, 0.244 µM; in the experiment with SK-MEL-2 melanoma it was over 100 µM; in the experiment with UACC-257 melanoma, over 100 µM; in the experiment on SK-MEL-5 melanoma it was 2.58 µM; in the experiment on HCC-2998 colon, over 100 µM. The TGI with CAKI-1 renal is over 100 µM; in the experiment with RXF 393 renal, over 100 µM; in the experiment on HCT-116 colon, over 33.9 µM.
Consider `CC(=O)OC1CC[C@@]2(C)C(CC[C@]3(C)C2CC=C2[C@@H]4C(C)[C@H](C)CCC4(C)CCC23C)[C@@]1(C)C(=O)O` (some centres undefined), for which the TGI in the experiment with SF-268 CNS came out at 60.5 µM; with OVCAR-3 ovarian, 40.4 µM; in the experiment on SK-MEL-2 melanoma, 50.2 µM; in the experiment with RPMI-8226 leukemia, 64.8 µM; in the experiment on UACC-257 melanoma, 40.9 µM; in the experiment with SK-MEL-5 melanoma it was 35.5 µM. Also, the TGI with HCC-2998 colon came out at 38.7 µM; in the experiment on CAKI-1 renal it was 35.1 µM; with RXF 393 renal, 49.4 µM; in the experiment with HCT-116 colon, 30.8 µM.
For `O=C(Nc1ccccc1O)c1ccc(NS(=O)(=O)c2cccc3cccnc23)cc1`, the GI50 is 1.54 µM with SF-268 CNS; 1.42 µM in the experiment on OVCAR-3 ovarian; 0.806 µM in the experiment on SK-MEL-2 melanoma; 0.464 µM in the experiment with RPMI-8226 leukemia; 0.571 µM with UACC-257 melanoma; 0.838 µM in the experiment on SK-MEL-5 melanoma. Also, the GI50 with HCC-2998 colon is 1.59 µM; in the experiment on CAKI-1 renal, 0.998 µM; with RXF 393 renal, 1.72 µM; in the experiment with HCT-116 colon, 0.752 µM. Further, the TGI with SF-268 CNS was 8.18 µM; with OVCAR-3 ovarian it was 5.61 µM; with SK-MEL-2 melanoma, 4.35 µM; in the experiment with RPMI-8226 leukemia, over 9.66 µM; in the experiment on UACC-257 melanoma, 5.25 µM; in the experiment with SK-MEL-5 melanoma, 3.42 µM. For the same compound, the TGI turned out to be 5.23 µM in the experiment with HCC-2998 colon, 4.8 µM with CAKI-1 renal, 5.81 µM with RXF 393 renal and 3.1 µM with HCT-116 colon.
As to `O=C(Nc1cc(Oc2cc(F)c(NC(=O)C3(C(=O)Nc4ccc(F)cc4)CC3)cc2F)ccn1)C1CC1`, the GI50 in the experiment with SF-268 CNS is 3.09 µM; with OVCAR-3 ovarian, 3.69 µM; with SK-MEL-2 melanoma, 1.35 µM; in the experiment with RPMI-8226 leukemia, 2.95 µM; in the experiment with UACC-257 melanoma, 2.08 µM; with SK-MEL-5 melanoma, 1.52 µM. Moreover, the GI50 with HCC-2998 colon was 3.5 µM; with CAKI-1 renal, 3.77 µM; with RXF 393 renal, 2.49 µM; in the experiment on HCT-116 colon, 2.27 µM. For the same compound, the TGI with SF-268 CNS was over 28.5 µM; in the experiment on OVCAR-3 ovarian it was 13.1 µM; in the experiment with SK-MEL-2 melanoma, 3.64 µM; with RPMI-8226 leukemia, 6.51 µM; with UACC-257 melanoma, 6.32 µM; in the experiment on SK-MEL-5 melanoma, 3.47 µM. In addition, the TGI was over 29.4 µM in the experiment on HCC-2998 colon, over 100 µM with CAKI-1 renal, 4.91 µM in the experiment on RXF 393 renal and over 100 µM in the experiment on HCT-116 colon.
Take `O=c1oc2ccc(-c3ccc(F)cc3F)cc2c(=O)n1-c1ccc(Cl)c(C(F)(F)F)c1`: the GI50 in the experiment with SF-268 CNS is 2.51 µM; with OVCAR-3 ovarian, 3.17 µM; in the experiment on SK-MEL-2 melanoma, 1.99 µM; in the experiment with RPMI-8226 leukemia, 2.1 µM; in the experiment with UACC-257 melanoma it was 1.85 µM; in the experiment with SK-MEL-5 melanoma, 1.6 µM. The GI50 was 2.41 µM in the experiment with HCC-2998 colon, 1.91 µM in the experiment on CAKI-1 renal, 1.7 µM with RXF 393 renal and 1.75 µM with HCT-116 colon. In addition, the TGI in the experiment with SF-268 CNS was 9.13 µM; in the experiment with OVCAR-3 ovarian, over 100 µM; in the experiment on SK-MEL-2 melanoma, 4.76 µM; in the experiment on RPMI-8226 leukemia, 5.9 µM; with UACC-257 melanoma it was 6.44 µM; in the experiment with SK-MEL-5 melanoma it was 3.05 µM. Besides, the TGI with HCC-2998 colon came out at 6.03 µM; in the experiment on CAKI-1 renal it was 6.35 µM; in the experiment with RXF 393 renal, 4.59 µM; in the experiment on HCT-116 colon it was 3.49 µM.
On to `Cc1cccc(NC(=O)/C=C/c2ccc([N+](=O)[O-])cc2)c1`, for which the TGI in the experiment with SF-268 CNS was over 76.8 µM; with OVCAR-3 ovarian, 27.6 µM; in the experiment on SK-MEL-2 melanoma, 49.4 µM; in the experiment on RPMI-8226 leukemia, over 68.8 µM; in the experiment on UACC-257 melanoma it was over 55.1 µM; in the experiment on SK-MEL-5 melanoma it was over 51 µM. For the same compound, the TGI with HCC-2998 colon is 32.7 µM; in the experiment on CAKI-1 renal it was over 54.4 µM; in the experiment with RXF 393 renal, over 52.7 µM; in the experiment with HCT-116 colon it was over 52.9 µM.
With `COc1ccc(/C=C\c2cc(OC)c(OC)c(OC)c2)cc1OCC(=O)Nc1ccc2nc(C)sc2c1`, the GI50 with SF-268 CNS was 3.61 µM; in the experiment with OVCAR-3 ovarian it was 6.32 µM; with SK-MEL-2 melanoma, 3.15 µM; in the experiment with RPMI-8226 leukemia it was 1.98 µM; in the experiment with UACC-257 melanoma, 1.73 µM; in the experiment with SK-MEL-5 melanoma, 1.97 µM. Further, the GI50 with HCC-2998 colon was 6.9 µM; with CAKI-1 renal it was 2.19 µM; in the experiment on RXF 393 renal it was 5.06 µM; in the experiment with HCT-116 colon it was 3.57 µM. In addition, the TGI worked out at 36.1 µM in the experiment with SF-268 CNS; 69.2 µM in the experiment on OVCAR-3 ovarian; 19.1 µM in the experiment on SK-MEL-2 melanoma; 4.69 µM in the experiment with RPMI-8226 leukemia; 3.4 µM in the experiment on UACC-257 melanoma; 5.14 µM with SK-MEL-5 melanoma. For the same compound, the TGI in the experiment on HCC-2998 colon is over 100 µM; with CAKI-1 renal, 5.85 µM; with RXF 393 renal, over 100 µM; with HCT-116 colon it was over 100 µM.
